Test results: the supplement of paper PMC8617591

Experiments:
[1] = system: Mycobacterium tuberculosis Erdman (autoluminescent); assay: total FIC50 (Loewe) at 50% inhibition, three-drug combination (log2); higher = more antagonistic
Experimental: (§1)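 DiaMOND equipotent three-drug combination dose responses (10 doses, 1.5- or 2-fold spacing, centred on IC90) against autoluminescent M. tuberculosis Erdman in 8 in vitro models. Read-out is OD600, or luminescence for the intracellular and dormancy models, normalised to untreated wells. Hill-fit Einf, AUC25 and GRinf are potency metrics; FIC50 and FIC90 are total Loewe fractional inhibitory concentrations as log2 (negative = synergy).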

[2] = system: Mycobacterium tuberculosis Erdman (autoluminescent); assay: total FIC90 (Loewe) at 90% inhibition, three-drug combination (log2); higher = more antagonistic
Experimental: as §1

[3] = system: Mycobacterium tuberculosis Erdman (autoluminescent); assay: Einf, fitted maximum growth inhibition of three-drug combination (fraction); higher = stronger maximal inhibition
Experimental: as §1

[4] = system: Mycobacterium tuberculosis Erdman (autoluminescent); assay: AUC25, normalised area under dose response up to IC25 (three-drug combination) (fraction (0-1)); higher = more potent at low dose
Experimental: as §1

[5] = system: Mycobacterium tuberculosis Erdman (autoluminescent); assay: GRinf, maximum normalised growth rate inhibition (three-drug combination) (unitless (-1 to 1)); higher = less effect (negative = killing)
Experimental: as §1

CC(C)/N=c1\cc2n(-c3ccc(Cl)cc3)c3ccccc3nc-2cc1Nc1ccc(Cl)cc1 [clofazimine] + CC[C@@H](CO)NCCN[C@@H](CC)CO [ethambutol] + O=[N+]([O-])c1cn2c(n1)OC[C@@H](OCc1ccc(OC(F)(F)F)cc1)C2 [pretomanid]
Settings	AUC25, [4]	Einf, [3]	GRinf, [5]	total FIC50, [1]	total FIC90, [2]
in vitro model: acidic pH 5.7, time point: constant (~7 days, model-specific)	0.129	0.803	-0.436	0.449	–
in vitro model: acidic pH 5.7, time point: terminal (~4-5 doublings, model-specific)	0.0966	0.954	-0.21	0.46	0.859
in vitro model: intracellular J774, time point: constant = terminal	–	0.987	-0.321	–	-1.25

Settings	AUC25, [4]	Einf, [3]	GRinf, [5]	total FIC50, [1]	total FIC90, [2]
in vitro model: butyrate, time point: constant (~7 days, model-specific)	0.103	0.962	-0.142	0.411	–
in vitro model: butyrate, time point: terminal (~4-5 doublings, model-specific)	0.0799	0.981	-0.138	0.442	0.382
in vitro model: cholesterol 0.05 mM, time point: constant (~7 days, model-specific)	0.136	0.718	-0.577	–	–
in vitro model: cholesterol 0.05 mM, time point: terminal (~4-5 doublings, model-specific)	0.131	0.84	-0.0173	2.15	–
in vitro model: cholesterol-high 0.2 mM, time point: constant (~7 days, model-specific)	0.102	0.928	-0.371	1.08	–
in vitro model: cholesterol-high 0.2 mM, time point: terminal (~4-5 doublings, model-specific)	0.0873	0.994	-0.857	0.97	1.51
in vitro model: dormancy (butyrate + nitrate, low O2), time point: constant (~7 days, model-specific)	0.106	0.824	0.446	-0.084	–
in vitro model: dormancy (butyrate + nitrate, low O2), time point: terminal (~4-5 doublings, model-specific)	0.127	0.99	-0.258	-0.114	0.801
in vitro model: standard 7H9 glycerol, time point: constant = terminal	0.126	0.956	-0.273	-0.284	–
in vitro model: valerate, time point: constant (~7 days, model-specific)	0.14	0.867	-0.308	0.805	–
in vitro model: valerate, time point: terminal (~4-5 doublings, model-specific)	0.0932	0.92	0.0599	0.355	0.973

CC(C)/N=c1\cc2n(-c3ccc(Cl)cc3)c3ccccc3nc-2cc1Nc1ccc(Cl)cc1 [clofazimine] + CO[C@H]1/C=C/O[C@@]2(C)Oc3c(C)c(O)c4c(O)c(c(/C=N/N5CCN(C6CCCC6)CC5)c(O)c4c3C2=O)NC(=O)/C(C)=C\C=C\[C@H](C)[C@H](O)[C@@H](C)[C@@H](O)[C@@H](C)[C@H](OC(C)=O)[C@@H]1C [rifapentine] + CO[C@H]1/C=C/O[C@@]2(C)Oc3c(C)c(O)c4c(O)c(c(/C=N/N5CCN(C)CC5)c(O)c4c3C2=O)NC(=O)/C(C)=C\C=C\[C@H](C)[C@H](O)[C@@H](C)[C@@H](O)[C@@H](C)[C@H](OC(C)=O)[C@@H]1C [rifampicin]
Settings	AUC25, [4]	Einf, [3]	GRinf, [5]	total FIC50, [1]	total FIC90, [2]
in vitro model: acidic pH 5.7, time point: constant (~7 days, model-specific)	0.0846	0.855	-0.0603	0.102	–
in vitro model: acidic pH 5.7, time point: terminal (~4-5 doublings, model-specific)	0.076	0.975	-0.1	0.133	-0.159
in vitro model: intracellular J774, time point: constant = terminal	–	0.956	-0.293	–	0.0463

Settings	AUC25, [4]	Einf, [3]	GRinf, [5]	total FIC50, [1]	total FIC90, [2]
in vitro model: butyrate, time point: constant (~7 days, model-specific)	0.115	0.935	-0.0887	0.282	0.128
in vitro model: butyrate, time point: terminal (~4-5 doublings, model-specific)	0.0924	0.967	-0.0699	0.19	0.285
in vitro model: cholesterol 0.05 mM, time point: constant (~7 days, model-specific)	0.13	0.619	-0.094	0.554	–
in vitro model: cholesterol 0.05 mM, time point: terminal (~4-5 doublings, model-specific)	0.098	0.865	0.0942	1.05	0.206
in vitro model: cholesterol-high 0.2 mM, time point: constant (~7 days, model-specific)	0.105	0.887	-0.333	0.692	–
in vitro model: cholesterol-high 0.2 mM, time point: terminal (~4-5 doublings, model-specific)	0.0914	0.999	-0.983	0.952	0.73
in vitro model: dormancy (butyrate + nitrate, low O2), time point: constant (~7 days, model-specific)	0.0771	0.965	0.0628	0.158	-0.937
in vitro model: dormancy (butyrate + nitrate, low O2), time point: terminal (~4-5 doublings, model-specific)	0.067	0.994	-0.464	-0.183	0.154
in vitro model: standard 7H9 glycerol, time point: constant = terminal	0.0923	0.907	0.0923	0.00896	1.54
in vitro model: valerate, time point: constant (~7 days, model-specific)	0.0792	0.861	0.00522	0.944	–
in vitro model: valerate, time point: terminal (~4-5 doublings, model-specific)	0.0548	0.925	0.043	0.559	0.577

CC(C)/N=c1\cc2n(-c3ccc(Cl)cc3)c3ccccc3nc-2cc1Nc1ccc(Cl)cc1 [clofazimine] + COc1c(N2C[C@@H]3CCCN[C@@H]3C2)c(F)cc2c(=O)c(C(=O)O)cn(C3CC3)c12 [moxifloxacin] + CO[C@H]1/C=C/O[C@@]2(C)Oc3c(C)c(O)c4c(O)c(c(/C=N/N5CCN(C6CCCC6)CC5)c(O)c4c3C2=O)NC(=O)/C(C)=C\C=C\[C@H](C)[C@H](O)[C@@H](C)[C@@H](O)[C@@H](C)[C@H](OC(C)=O)[C@@H]1C [rifapentine]
Settings	AUC25, [4]	Einf, [3]	GRinf, [5]	total FIC50, [1]	total FIC90, [2]
in vitro model: acidic pH 5.7, time point: constant (~7 days, model-specific)	0.0597	0.791	0.0664	0.757	–
in vitro model: acidic pH 5.7, time point: terminal (~4-5 doublings, model-specific)	0.0785	0.994	-0.157	0.662	0.776
in vitro model: intracellular J774, time point: constant = terminal	–	0.896	-0.177	–	0.705

Settings	AUC25, [4]	Einf, [3]	GRinf, [5]	total FIC50, [1]	total FIC90, [2]
in vitro model: butyrate, time point: constant (~7 days, model-specific)	0.109	0.951	-0.179	0.683	0.815
in vitro model: butyrate, time point: terminal (~4-5 doublings, model-specific)	0.0865	0.976	-0.126	0.677	0.878
in vitro model: cholesterol 0.05 mM, time point: constant (~7 days, model-specific)	0.117	0.651	-0.0835	0.506	–
in vitro model: cholesterol 0.05 mM, time point: terminal (~4-5 doublings, model-specific)	0.106	0.826	0.0322	1.24	0.476
in vitro model: cholesterol-high 0.2 mM, time point: constant (~7 days, model-specific)	0.122	0.933	-0.651	0.36	0.939
in vitro model: cholesterol-high 0.2 mM, time point: terminal (~4-5 doublings, model-specific)	0.0999	1	-0.936	0.593	0.687
in vitro model: dormancy (butyrate + nitrate, low O2), time point: constant (~7 days, model-specific)	0.0884	0.916	0.189	0.695	0.16
in vitro model: dormancy (butyrate + nitrate, low O2), time point: terminal (~4-5 doublings, model-specific)	0.0815	0.985	-0.35	0.807	1.55
in vitro model: standard 7H9 glycerol, time point: constant = terminal	0.11	0.961	-0.153	0.103	0.69
in vitro model: valerate, time point: constant (~7 days, model-specific)	0.121	0.922	-0.0961	0.866	–
in vitro model: valerate, time point: terminal (~4-5 doublings, model-specific)	0.0636	0.937	0.0037	0.401	0.131

CC(C)/N=c1\cc2n(-c3ccc(Cl)cc3)c3ccccc3nc-2cc1Nc1ccc(Cl)cc1 [clofazimine] + COc1c(N2C[C@@H]3CCCN[C@@H]3C2)c(F)cc2c(=O)c(C(=O)O)cn(C3CC3)c12 [moxifloxacin] + CO[C@H]1/C=C/O[C@@]2(C)Oc3c(C)c(O)c4c(O)c(c(/C=N/N5CCN(C)CC5)c(O)c4c3C2=O)NC(=O)/C(C)=C\C=C\[C@H](C)[C@H](O)[C@@H](C)[C@@H](O)[C@@H](C)[C@H](OC(C)=O)[C@@H]1C [rifampicin]
Settings	AUC25, [4]	Einf, [3]	GRinf, [5]	total FIC50, [1]	total FIC90, [2]
in vitro model: acidic pH 5.7, time point: constant (~7 days, model-specific)	0.0543	0.794	0.0586	0.584	–
in vitro model: acidic pH 5.7, time point: terminal (~4-5 doublings, model-specific)	0.0718	0.984	-0.141	0.552	0.413
in vitro model: intracellular J774, time point: constant = terminal	–	0.971	-0.31	–	0.881

Settings	AUC25, [4]	Einf, [3]	GRinf, [5]	total FIC50, [1]	total FIC90, [2]
in vitro model: butyrate, time point: constant (~7 days, model-specific)	0.118	0.961	-0.195	0.632	0.476
in vitro model: butyrate, time point: terminal (~4-5 doublings, model-specific)	0.0964	0.979	-0.129	0.441	0.673
in vitro model: cholesterol 0.05 mM, time point: constant (~7 days, model-specific)	0.111	0.622	0.0422	1.52	–
in vitro model: cholesterol 0.05 mM, time point: terminal (~4-5 doublings, model-specific)	0.0951	0.89	-0.0588	1.22	-0.407
in vitro model: cholesterol-high 0.2 mM, time point: constant (~7 days, model-specific)	0.119	0.887	-0.695	1.08	1.19
in vitro model: cholesterol-high 0.2 mM, time point: terminal (~4-5 doublings, model-specific)	0.0965	1	-1	1.33	1.21
in vitro model: dormancy (butyrate + nitrate, low O2), time point: constant (~7 days, model-specific)	0.0851	0.924	0.135	0.282	-0.619
in vitro model: dormancy (butyrate + nitrate, low O2), time point: terminal (~4-5 doublings, model-specific)	0.108	0.991	-0.361	-0.142	1.27
in vitro model: standard 7H9 glycerol, time point: constant = terminal	0.128	0.975	-0.0863	-0.17	–
in vitro model: valerate, time point: constant (~7 days, model-specific)	0.104	0.907	-0.0605	1.12	–
in vitro model: valerate, time point: terminal (~4-5 doublings, model-specific)	0.075	0.948	0.0195	0.91	1.97
